Test results: BindingDB's records for PubMed 2885406 (University of California, 1987)
Where “and” joins values, the source holds several entries; their conditions need not be identical. Equal entries are not always repeated.

molecular target: T1, Alpha-2C adrenergic receptor (Rattus norvegicus, UniProt P22086)
T1 sequence (P22086 whole entry): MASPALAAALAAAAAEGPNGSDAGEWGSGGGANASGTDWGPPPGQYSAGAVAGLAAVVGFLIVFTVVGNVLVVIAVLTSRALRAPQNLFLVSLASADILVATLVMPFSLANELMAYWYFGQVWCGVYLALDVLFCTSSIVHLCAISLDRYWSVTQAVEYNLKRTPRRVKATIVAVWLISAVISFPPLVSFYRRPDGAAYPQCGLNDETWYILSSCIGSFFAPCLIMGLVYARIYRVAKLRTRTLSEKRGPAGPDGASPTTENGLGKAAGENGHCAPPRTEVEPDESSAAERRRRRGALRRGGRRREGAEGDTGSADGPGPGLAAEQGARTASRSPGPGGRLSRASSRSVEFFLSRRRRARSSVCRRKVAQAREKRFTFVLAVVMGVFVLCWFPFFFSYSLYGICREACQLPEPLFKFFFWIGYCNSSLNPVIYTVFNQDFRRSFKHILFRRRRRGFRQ

Compound	Ki
CC(C)(C)[C@]1(O)CCN2C[C@H]3c4ccccc4CCc4cccc(c43)[C@@H]2C1	220 nM and 107 nM
COc1ccc(OC)c(C(O)C(C)N)c1 (stereo not given)	> 10000 nM
NCCc1ccc(O)c(O)c1	> 10000 nM and 9990 nM
O=C(c1ccc(F)cc1)C1CCN(CCn2c(=O)[nH]c3ccccc3c2=O)CC1 [3-(2-{4-[(4-fluorophenyl)carbonyl]piperidin-1-yl}ethyl)-1,2,3,4-tetrahydroquinazoline-2,4-dione]	2210 nM and 441 nM
CN1Cc2c(N)cccc2[C@H](c2ccccc2)C1 [(+/-)-2-Methyl-4-phenyl-1,2,3,4-tetrahydro-isoquinolin-8-ylamine]	8500 nM and 4990 nM
C=CCN1CCc2nc(N)sc2CC1 [B-HT 920]	152 nM and 62.2 nM
NC(N)=NN=Cc1c(Cl)cccc1Cl [Guanabenz]	5.8 nM and 36.7 nM
CCN1CCCC1CNC(=O)c1cc(S(N)(=O)=O)ccc1OC (stereo not given) [N-[(1-ethylpyrrolidin-2-yl)methyl]-2-methoxy-5-sulfamoylbenzamide]	6120 nM and 682 nM
NCCc1c[nH]c2ccc(O)cc12 [[3H]-5-HT]	> 10000 nM
C[C@H](N)Cc1ccccc1 [beta-aminopropylbenzene]	992 nM and 2410 nM
